Experimental data reported in patent US20250320207A1, “Ketal Protected Intermediate for Sonrotoclax and Preparation Method Thereof” (priority 2022, published 2025).

Experimental: The sample was tested by GC (carrier gas: N2) and HPLC (Column: Waters Xselect HSS T3 (150 mm*4.6 mm, 3.5 um) P/N: 186004786; mobile phase 0.05% TFA in water, ACN:MeOH=1:1, v/v; Flow: 1 ml/min; Temperature: 30° C.).

C1COC2(CC3(CCNCC3)C2)OC1.Cl [1,5-dioxa-11-azadispiro[5.1.5.1]tetradecane hydrogen chloride]
storage stability (result in words): stable enough | Product, Impurity profile (RRT, Area %), RRT 1.00 (stored at 2-8° C. for 3.5 months, double layered LDPE bag with desiccant inside heat-sealed aluminum foil bag, GC and HPLC): 99.90 Area %
